Assay results from ChEMBL document CHEMBL1127733, “Aspartyl alpha-((1-phenyl-3-(trifluoromethyl)-pyrazol-5-yl)oxy)methyl ketones as interleukin-1 beta converting enzyme inhibitors. Significance of the P1 and P3 amido nitrogens for enzyme-peptide inhibitor binding” (J Med Chem, 1994).

Molecular target: T1, Caspase-1 (Homo sapiens) (UniProt P29466)
T1 sequence (whole entry): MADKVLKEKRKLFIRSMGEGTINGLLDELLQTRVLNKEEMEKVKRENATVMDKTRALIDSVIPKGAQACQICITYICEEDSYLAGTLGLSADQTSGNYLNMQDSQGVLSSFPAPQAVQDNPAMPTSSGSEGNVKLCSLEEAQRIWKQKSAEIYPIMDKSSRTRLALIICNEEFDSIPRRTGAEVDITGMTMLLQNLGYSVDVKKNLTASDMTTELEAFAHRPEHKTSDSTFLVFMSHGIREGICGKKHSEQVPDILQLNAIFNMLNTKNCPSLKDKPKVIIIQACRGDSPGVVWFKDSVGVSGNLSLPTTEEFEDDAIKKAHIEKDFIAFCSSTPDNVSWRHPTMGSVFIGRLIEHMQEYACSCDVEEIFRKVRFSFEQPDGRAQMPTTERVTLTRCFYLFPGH
Assay: Inhibition constant against interleukin-1-beta converting enzyme

Row | SMILES | K obs / 1 [M⁻¹ s⁻¹]
1 | CC(C)[C@H](NC(=O)OCc1ccccc1)C(=O)N1CC[C@H]1C(=O)N[C@@H](CC(=O)O)C(=O)COc1cc(C(F)(F)F)nn1-c1ccccc1 | 46200
2 | CC(C)[C@H](NC(=O)OCc1ccccc1)C(=O)N[C@@H](C)C(=O)N(C)[C@@H](CC(=O)O)C(=O)COc1cc(C(F)(F)F)nn1-c1ccccc1 | < 300
3 | CC(C)[C@H](NC(=O)OCc1ccccc1)C(=O)N[C@@H](CC(=O)O)C(=O)COc1cc(C(F)(F)F)nn1-c1ccccc1 | 20000
4 | CC(C)[C@H](NC(=O)OCc1ccccc1)C(=O)N1CCC[C@H]1C(=O)N[C@@H](CC(=O)O)C(=O)COc1cc(C(F)(F)F)nn1-c1ccccc1 | 116000
5 | CC(C)[C@H](NC(=O)OCc1ccccc1)C(=O)N(C)[C@@H](C)C(=O)N[C@@H](CC(=O)O)C(=O)COc1cc(C(F)(F)F)nn1-c1ccccc1 | 233000
6 | CC(C)[C@@H](C(=O)N[C@@H](C)C(=O)N[C@@H](CC(=O)O)C(=O)COc1cc(C(F)(F)F)nn1-c1ccccc1)N(C)C(=O)OCc1ccccc1 | 8600
7 | O=C(O)C[C@H](NC(=O)OCc1ccccc1)C(=O)COc1cc(C(F)(F)F)nn1-c1ccccc1 | 11000
